{
  "source": "patent US9580432B2",
  "about": "“Fused pyrimidine compound or salt thereof” (TAIHO PHARMACEUTICAL CO., LTD., priority 2013, dated 2017)",
  "target": "purified recombinant human BTK protein (Homo sapiens (Human), UniProt Q06187)",
  "sequence (Q06187 whole entry)": "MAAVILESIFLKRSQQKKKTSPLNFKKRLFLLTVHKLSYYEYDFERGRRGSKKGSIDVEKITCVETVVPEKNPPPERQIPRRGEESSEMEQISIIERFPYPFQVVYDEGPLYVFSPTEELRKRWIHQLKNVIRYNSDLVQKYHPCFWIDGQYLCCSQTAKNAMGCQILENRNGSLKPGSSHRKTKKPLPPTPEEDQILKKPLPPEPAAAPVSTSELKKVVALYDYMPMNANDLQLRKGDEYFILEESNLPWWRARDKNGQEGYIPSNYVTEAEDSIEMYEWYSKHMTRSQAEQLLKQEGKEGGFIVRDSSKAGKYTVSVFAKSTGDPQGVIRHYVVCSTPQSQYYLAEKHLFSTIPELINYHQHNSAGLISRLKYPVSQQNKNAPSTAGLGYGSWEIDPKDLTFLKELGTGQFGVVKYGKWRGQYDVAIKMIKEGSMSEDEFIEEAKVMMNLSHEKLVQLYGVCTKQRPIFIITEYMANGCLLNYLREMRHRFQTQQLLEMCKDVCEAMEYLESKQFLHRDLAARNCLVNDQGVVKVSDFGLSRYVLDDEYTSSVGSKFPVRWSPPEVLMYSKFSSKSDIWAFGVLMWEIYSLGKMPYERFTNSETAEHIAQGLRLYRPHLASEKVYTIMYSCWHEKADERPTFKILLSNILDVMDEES",
  "experiment": "Measurement of BTK inhibitory activity (in vitro)",
  "assay_type": "biochemical",
  "settings": "FL-PEPTIDE 2 substrate 1 μM, ATP 45 μM, 40 minutes at 25° C.",
  "text": "With regard to the setting of the conditions for a method for measuring the inhibitory activity of a compound against BTK kinase activity in vitro, it is described in the consumable reagent supplies price list for LabChip (registered trademark) series of PerkinElmer, Inc. that FL-PEPTIDE 2 corresponds to a substrate peptide for the measurement of BTK kinase activity. Therefore, FL-PEPTIDE 2 was used as a substrate. The purified recombinant human BTK protein used in the test was purchased from Carna Biosciences, Inc.\nWith regard to the measurement of the inhibitory activity of the compounds, firstly, the compounds of the present invention were diluted stepwise with dimethyl sulfoxide (DMSO). Subsequently, BTK protein, a substrate peptide (final concentration was 1 μM), magnesium chloride (final concentration was 10 mM), ATP (final concentration was 45 μM), and a DMSO solution of the compounds of the present invention (final concentration of DMSO was 5%) were added to a buffer solution for kinase reaction (20 mM HEPES (pH 7.5), 2 mM dithiotheitol, 0.01% Triton X-100), and after the solution was incubated for 40 minutes at 25° C., a kinase reaction was carried out. The reaction was terminated by adding EDTA thereto in order to obtain a final concentration of 30 mM. Finally, a substrate peptide that was not phosphorylated (S) and a phosphorylated peptide (P) were separated and detected by microchannel capillary electrophoresis using a LabChip EZ Reader II (PerkinElmer, Inc.).",
  "data": [
    {"molecule": "C=CC(=O)N1CC(n2nc(C(=O)Nc3nc4ccccc4o3)c3c(N)ncnc32)C1", "note": "[Example 74, 1-(1-acryloylazetidin-3-yl)-4-amino-N-(benzo[d]oxazol-2-yl)-1H-pyrazolo[3,4-d]pyrimidine-3-carboxamide]", "values": [
      {"measurement": "IC50", "result": 21.4, "unit": "nM"}
    ]},
    {"molecule": "C=CC(=O)N1CC[C@@H](n2nc(C(=O)Nc3nc4cc(-c5ccc(Cl)cc5)ccc4o3)c3c(N)ncnc32)C1", "note": "[Example 31, (R)-1-(1-acryloylpyrrolidin-3-yl)-4-amino-N-(5-(4-chlorophenyl)benzo[d]oxazol-2-yl)-1H-pyrazolo[3,4-d]pyrimidine-3-carboxamide]", "values": [
      {"measurement": "IC50", "result": 1.67, "unit": "nM"}
    ]},
    {"molecule": "C=CC(=O)N1CC[C@@H](n2cc(C(=O)Nc3nc4cc(-c5ccccc5)ccc4o3)c3c(N)ncnc32)C1", "note": "[Example 55, (R)-7-(1-acryloylpyrrolidin-3-yl)-4-amino-N-(5-phenylbenzo[d]oxazol-2-yl)-7H-pyrrolo[2,3-d]pyrimidine-5-carboxamide]", "values": [
      {"measurement": "IC50", "result": 0.799, "unit": "nM"}
    ]},
    {"molecule": "C=CC(=O)N1CCC(n2nc(C(=O)Nc3nc4ccccc4o3)c3c(N)ncnc32)CC1", "note": "[Example 69, 1-(1-acryloylpiperidin-4-yl)-4-amino-N-(benzo[d]oxazol-2-yl)-1H-pyrazolo[3,4-d]pyrimidine-3-carboxamide]", "values": [
      {"measurement": "IC50", "result": 162, "unit": "nM"}
    ]},
    {"molecule": "C=CC(=O)N1CCC[C@@H](n2nc(C(=O)Nc3nc4cc(-c5cccs5)ccc4o3)c3c(N)ncnc32)C1", "note": "[Example 3, (R)-1-(1-acryloylpiperidin-3-yl)-4-amino-N-(5-(thiophen-2-yl)benzo[d]oxazol-2-yl)-1H-pyrazolo[3,4-d]pyrimidine-3-carboxamide]", "values": [
      {"measurement": "IC50", "result": 0.443, "unit": "nM"}
    ]},
    {"molecule": "CCN(CC)C/C=C/C(=O)N1CC[C@@H](n2cc(C(=O)Nc3nc4cc(-c5ccccc5)ccc4o3)c3c(N)ncnc32)C1", "note": "[Example 58, (R,E)-4-amino-N-(5-phenylbenzo[d]oxazol-2-yl)-7-(1-(4-(diethylamino)but-2-enoyl)pyrrolidin-3-yl) 7H-pyrrolo[2,3-d]pyrimidine-5-carboxamide]", "values": [
      {"measurement": "IC50", "result": 1.84, "unit": "nM"}
    ]},
    {"molecule": "C=CC(=O)N1CCC[C@@H](n2nc(C(=O)Nc3nc4cccc(Cl)c4o3)c3c(N)ncnc32)C1", "note": "[Example 64, (R)-1-(1-acryloylpiperidin-3-yl)-4-amino-N-(7-chlorobenzo[d]oxazol-2-yl)-1H-pyrazolo[3,4-d]pyrimidine-3-carboxamide]", "values": [
      {"measurement": "IC50", "result": 8.09, "unit": "nM"}
    ]},
    {"molecule": "CCN(C)C/C=C/C(=O)N1CC[C@@H](n2nc(C(=O)Nc3nc4cc(Cl)ccc4o3)c3c(N)ncnc32)C1", "note": "[Example 33, (R,E)-4-amino-N-(5-chlorobenzo[d]oxazol-2-yl)-1-(1-(4-(ethyl(methyl)amino)but-2-enoyl)pyrrolidin-3-yl)-1H-pyrazolo[3,4-d]pyrimidine-3-carboxamide]", "values": [
      {"measurement": "IC50", "result": 0.887, "unit": "nM"}
    ]},
    {"molecule": "Nc1ncnc2c1c(C(=O)Nc1nc3ccccc3o1)nn2[C@@H]1CCCN(C(=O)/C=C/CN2CCN(CCNC(=O)CCCC[C@@H]3SC[C@@H]4NC(=O)N[C@@H]43)CC2)C1", "note": "[Example P-2, 4-amino-N-(benzo[d]oxazol-2-yl)-1-((R)-1-((E)-4-(4-(2-(5-((3aS,4S,6aR)-2-oxohexahydro-1H-thieno[3,4-d]imidazol-4-yl)pentanamido)ethyl)piperazin-1-yl)but-2-enoyl)piperidin-3-yl)-1H-pyrazolo[3,4-d]pyrimidine-3-carboxamide]", "values": [
      {"measurement": "IC50", "result": 43.9, "unit": "nM"}
    ]},
    {"molecule": "CC1=CC(C)=[N+]2C1=Cc1ccc(CCC(=O)NCCN3CCN(C/C=C/C(=O)N4CCC[C@@H](n5nc(C(=O)Nc6nc7ccccc7o6)c6c(N)ncnc65)C4)CC3)n1[B-]2(F)F", "note": "[Example P-1, (R,E)-7-(3-((2-(4-(4-(3-(4-amino-3-(benzo[d]oxazol-2-ylcarbamoyl)-1H-pyrazolo[3,4-d]pyrimidin-1-yl)piperidin-1-yl)-4-oxobut-2-en-1-yl)piperazin-1-yl)ethyl)amino)-3-oxopropyl) 5,5-difluoro-1,3-dimethyl-5H-dipyrrolo[1,2-c:2′,1′-f][1,3,2]diazaborinin-4-ium-5-uide]", "values": [
      {"measurement": "IC50", "result": 31.4, "unit": "nM"}
    ]}
  ]
}
